# Activity calls are given as the source filed them. No cut-off for these calls is given here.
# How the values were obtained:
# Mus musculus [1] = assay: Anti-colitis activity in ICR mouse model assessed as increase in DSS-reduced pyruvate level at 60 mg/kg, IG treated for 8 days consecutively; assay type: functional, organism-based; conditions: time 8.0 day
# Mus musculus [2] = assay: Anti-colitis activity in ICR mouse model assessed as decrease in DSS-induced I-kappaB-alpha degradation in colon tissue at 60 mg/kg, IG treated for 8 days consecutively by Western blot analysis; assay type: functional, organism-based; conditions: time 8.0 day
# Mus musculus [3] = assay: Anti-colitis activity in ICR mouse model assessed as decrease in DSS-induced IL-6 level administered intragastrically treated for 8 days consecutively; assay type: functional, organism-based; conditions: dose 15-60 mg/kg, route ig, time 8.0 day
# [4] = Cmax in ICR mouse at 15 mg/kg, IG measured for 12 hrs by LC-MS/MS analysis; assay type: ADME, organism-based; conditions: in vivo, po
# [5] = Cmax in Sprague-Dawley rat administered as hydroxypropyl-beta-cyclodextrin at 20 mg/kg, IG measured for 12 hrs by LC-MS/MS analysis; assay type: ADME, organism-based; conditions: in vivo, po
# Mus musculus [6] = assay: Anti-colitis activity in ICR mouse model assessed as decrease in DSS-induced I-kappaB-alpha degradation in colon tissue at 60 mg/kg, IG treated for 8 days consecutively in presence of DADA by Western blot analysis; assay type: functional, organism-based; conditions: time 8.0 day
# [7] = Tmax in Sprague-Dawley rat administered as hydroxypropyl-beta-cyclodextrin at 20 mg/kg, IG measured for 12 hrs by LC-MS/MS analysis; assay type: ADME, organism-based; conditions: in vivo, po
# [8] = Stability in mouse plasma assessed as half life at 10 uM preincubated for 5 mins followed by NADPH addition measured for 10 to 480 mins by LC-MS/MS analysis; assay type: ADME, cell-free; conditions: time 15-485 min
# Mus musculus [9] = assay: Anti-colitis activity in ICR mouse model assessed as decrease in DSS-induced apoptosis in colon tissue at 60 mg/kg, IG treated for 8 days consecutively in presence of DADA by H and E staining based analysis; assay type: functional, organism-based; conditions: time 8.0 day
# [10] = Stability in mouse liver microsomes assessed as half life at 10 uM preincubated for 5 mins followed by NADPH addition measured for 10 to 480 mins by LC-MS/MS analysis; assay type: ADME, Microsome; conditions: time 15-485 min
# THP-1 [11] = assay: Anti-inflammatory activity in human THP-1 cells assessed as decrease in LPS-induced IL-1beta level at 10 uM pretreated for 1 hr followed by LPS treatment for 24 hrs in presence of DADA by ELISA; assay type: functional, cell-based; conditions: time 25.0 hrs
# Mus musculus [12] = assay: Anti-colitis activity in ICR mouse model assessed as decrease in DSS-induced pyruvate carboxylase level at 60 mg/kg, IG treated for 8 days consecutively in presence of DADA; assay type: functional, organism-based; conditions: time 8.0 day
# Mus musculus [13] = assay: Anti-colitis activity in ICR mouse model assessed as decrease in DSS-induced P65 phosphorylation in colon tissue at 60 mg/kg, IG treated for 8 days consecutively in presence of DADA by Western blot analysis; assay type: functional, organism-based; conditions: time 8.0 day
# Mus musculus [14] = assay: Anti-colitis activity in ICR mouse model assessed as reversal of DSS-induced spleen weight at 15 to 60 mg/kg, IG treated for 9 days consecutively; assay type: functional, organism-based; conditions: dose 15-60 mg/kg, time 9.0 day
# [15] = Stability in mouse liver microsomes assessed as intrinsic clearance at 10 uM preincubated for 5 mins followed by NADPH addition measured for 10 to 480 mins by LC-MS/MS analysis; assay type: ADME, Microsome; conditions: time 15-485 min
# Mus musculus [16] = assay: Anti-colitis activity in ICR mouse model assessed as decrease in DSS-induced epithelial cell injury in colon tissue at 60 mg/kg, IG treated for 8 days consecutively in presence of DADA by H and E staining based analysis; assay type: functional, organism-based; conditions: time 8.0 day
# [17] = MRT (0 to t) in ICR mouse at 15 mg/kg, IG measured for 12 hrs by LC-MS/MS analysis; assay type: ADME, organism-based; conditions: in vivo, po
# THP-1 [18] = assay: Anti-inflammatory activity in LPS-treated human THP-1 cells assessed as decrease in phosphorylated I-kappaB-alpha level at 10 uM pretreated for 1 hr followed by LPS treatment for 6 hrs by Western blot analysis; assay type: functional, cell-based; conditions: time 7.0 hrs
# Mus musculus [19] = assay: Anti-colitis activity in ICR mouse model assessed as decrease in DSS-induced IL-6 level at 60 mg/kg, IG treated for 8 days consecutively in presence of DADA; assay type: functional, organism-based; conditions: time 8.0 day
# [20] = Toxicity in ICR mouse assessed as change in kidney index at 300 mg/kg, IG measured for 9 days; assay type: organism-based; conditions: in vivo, po, 216 h, time 9 day
# Mus musculus [21] = assay: Anti-colitis activity in ICR mouse model assessed as […] DSS-induced colon length at 15 to 60 mg/kg, IG treated for 8 days consecutively; assay type: functional, organism-based; conditions: dose 15-60 mg/kg, time 8.0 day
# Mus musculus [22] = assay: Anti-colitis activity in ICR mouse model of DSS-induced colitis assessed as decrease in DAI score at 15 to 60 mg/kg, IG treated for 9 days consecutively; assay type: functional, organism-based; conditions: dose 15-60 mg/kg, time 9.0 day
# Mus musculus [23] = assay: Anti-colitis activity in ICR mouse model assessed as decrease in DSS-induced P65 phosphorylation in colon tissue at 60 mg/kg, IG treated for 8 days consecutively by Western blot analysis; assay type: functional, organism-based; conditions: time 8.0 day
# [24] = Half life in colon of ICR mouse at 15 mg/kg, IG measured for 12 hrs by LC-MS/MS analysis; assay type: ADME, organism-based; conditions: po
# [25] = Tmax in colon of ICR mouse at 15 mg/kg, IG measured for 12 hrs by LC-MS/MS analysis; assay type: ADME, organism-based; conditions: po
# Mus musculus [26] = assay: Anti-colitis activity in ICR mouse model of DSS-induced colitis assessed as effect on pyruvate carboxylase expression in colon tissue at 60 mg/kg, IG treated for 8 days consecutively by Western blot analysis; assay type: functional, organism-based; conditions: time 8.0 day
# THP-1 [27] = assay: Anti-inflammatory activity in human THP-1 cells assessed as decrease in LPS-induced IL-6 level at 10 uM pretreated for 1 hr followed by LPS treatment for 24 hrs in presence of DADA by ELISA; assay type: functional, cell-based; conditions: time 25.0 hrs
# THP-1 [28] = assay: Anti-inflammatory activity in human THP-1 cells assessed as decrease in LPS-induced IL-6 level pretreated for 1 hr followed by LPS treatment for 24 hrs by ELISA; assay type: functional, cell-based; conditions: dose 0.1-10 µM, time 25.0 hrs
# [29] = Toxicity in ICR mouse assessed as change in spleen index at 300 mg/kg, IG measured for 9 days; assay type: organism-based; conditions: in vivo, po, 216 h, time 9 day
# [30] = Cmax in colon of ICR mouse at 15 mg/kg, IG measured for 12 hrs by LC-MS/MS analysis; assay type: ADME, organism-based; conditions: po
# Mus musculus [31] = assay: Anti-colitis activity in ICR mouse model assessed as decrease in DSS-induced DAI score at 60 mg/kg, IG treated for 8 days consecutively in presence of DADA; assay type: functional, organism-based; conditions: time 8.0 day
# [32] = MRT (0 to t) in […] administered as hydroxypropyl-beta-cyclodextrin at 20 mg/kg, IG measured for 12 hrs by LC-MS/MS analysis; assay type: ADME, organism-based; conditions: in vivo, po
# [33] = Half life in Sprague-Dawley rat administered as hydroxypropyl-beta-cyclodextrin at 20 mg/kg, IG measured for 12 hrs by LC-MS/MS analysis; assay type: ADME, organism-based; conditions: in vivo, po
# [34] = Volume of distribution in ICR mouse at 15 mg/kg, IG measured for 12 hrs by LC-MS/MS analysis; assay type: ADME, organism-based; conditions: in vivo, po
# [35] = Tmax in ICR mouse at 15 mg/kg, IG measured for 12 hrs by LC-MS/MS analysis; assay type: ADME, organism-based; conditions: in vivo, po
# [36] = AUC (0 to t) in Sprague-Dawley rat administered as hydroxypropyl-beta-cyclodextrin at 20 mg/kg, IG measured for 12 hrs by LC-MS/MS analysis; assay type: ADME, organism-based; conditions: in vivo, po
structure (smiles),measurement,setting,value
C=C(C)[C@@H]1CC[C@]2(C(=O)NCCCCCC(=O)OC)CC[C@]3(C)[C@H](CC[C@@H]4[C@@]5(C)CC[C@H](O[C@@H]6OC[C@H](O)[C@H](O)[C@H]6O[C@@H]6O[C@@H](C)[C@H](O)[C@@H](O)[C@H]6O)[C@@](C)(CO)[C@@H]5CC[C@]43C)[C@@H]12,Activity,Mus musculus [1],Active
same,Activity,Mus musculus [2],Active
same,Activity,Mus musculus [3],Dose-Dependent Effect
same,Cmax,[4],40.4 ng/mL
same,Cmax,[5],57.5 ng/mL
same,Activity,Mus musculus [6],inactive
same,Tmax,[7],0.5 h
same,half-life at 10 µM,[8],1.14 min
same,Activity,Mus musculus [9],inactive
same,t1/2,[10],6.46 min
same,Activity,THP-1 [11],inactive
same,Activity,Mus musculus [12],inactive
same,Activity,Mus musculus [13],inactive
same,Activity,Mus musculus [14],Active
same,CLH,[15],6.46 µL/min/mg
same,Activity,Mus musculus [16],inactive
same,MRT last at 12 h,[17],3.1 h
same,Activity,THP-1 [18],Active
same,Activity,Mus musculus [19],inactive
same,Activity,[20],Non-Toxic
same,Activity,Mus musculus [21],Active
same,Activity,Mus musculus [22],Active
same,Activity,Mus musculus [23],Active
same,half-life,[24],1.54 h
same,Tmax,[25],1.58 h
same,Activity,Mus musculus [26],inactive
same,Activity,THP-1 [27],inactive
same,Activity,THP-1 [28],Dose-Dependent Effect
same,Activity,[29],Non-Toxic
same,Cmax,[30],1110 ng/mL
same,Activity,Mus musculus [31],inactive
same,MRT last at 12 h,[32],4.05 h
same,t1/2,[33],1.38 h
same,Vd,[34],2867.15 L/kg
same,Tmax,[35],0.96 h
same,AUCt,[36],223.22 ng·h/mL

# Reference: ChEMBL document CHEMBL5543173, “Discovery of a New Anti-Inflammatory Agent from Anemoside B4 Derivatives and Its Therapeutic Effect on Colitis by Targeting Pyruvate Carboxylase” (J Med Chem, 2024)
